Here are results for two molecules from patent US11465972B2, “Inhibitors of oxidized low-density lipoprotein receptor 1 and methods of use thereof” (United States Government as represented by the Department …, priority 2015, dated 2022).

The structures appear in SMILES notation. Where “and” joins values, the source holds several entries; their conditions need not be identical. Identical values can stand only once. Entries after “also recorded” stand apart in the source; their conditions may differ.

In series [1] the test system is VCAM-1 mRNA. The series is described as follows: ox-LDL-induced VCAM-1 mRNA expression in HUVECs (q-PCR). The format is cell-based, human. Conditions: 5 μg/mL ox-LDL for 6 hrs. As to the method:
FIG. 4A, FIG. 4B, FIG. 4C, FIG. 4D and FIG. 4E depict the effect of lead molecules on ox-LDL-induced the activation of MAPKs in HUVECs, VCAM-1 expression and monocyte adhesion onto HUVECs. […] (FIG. 4B) Western blot analyses showing phospho-p38MAPK expression in HUVECs following exposure to 200 nM of each compound for 30 min, and subsequently exposed to 5 μg/mL ox-LDL for 6 hours. […] (FIG. 4D) The variation of VCAM-1 mRNA expression levels with different concentrations of the led compounds. The concentrations are indicated on the X-axis and the VCAM-1 mRNA levels are shown on the Y-axis. The plots for all five molecules are shown in separate colors. […]
It is known that the activation of LOX-1 by ox-LDL in endothelial cells stimulates the expression of leukocyte adhesion molecules^26. In this study, VCAM-1 expression in HUVECs in the presence of 5 μg/ml ox-LDL was measured. […] VCAM-1 mRNA expression in HUVECs exposed to 5 μg/mL ox-LDL for 6 hrs was also measured.
HUVECs were plated into 12-well plates, and treated with 0, 20, 200 and 2000 nM of each of 5 molecules […] for 30 min, and subsequently exposed to […] ox-LDL for 6 h at 37° C. […] Data was analyzed by using MX3000P software. Relative mRNA expression was quantified using the comparative threshold cycle (Ct) method. […]

Series [2] concerns the target human LOX-1 (Homo sapiens, UniProt P78380). Kind of series: Dil-ox-LDL uptake in CHO cells overexpressing human LOX-1. The series is classed as cell-based. Conditions: 0, 20, 200, 2000 nM, read-out: IC50, inhibition of Dil-ox-LDL uptake. As for the experimental part: FIG. 3A, FIG. 3B, FIG. 3C and FIG. 3D depict the inhibitory effect of the lead compounds on Dil-ox-LDL uptake by HUVECs and CHO cells (measured by flow cytometry) and the effect of the lead compounds on ox-LDL-induced LOX-1 mRNA and protein expression. (FIG. 3A) (Upper Panel) Flow cytometry measurements using HUVECs in the presence of the five lead compounds (Mol-1-Mol-5), each a at 200 nM concentration. (Lower Panel) The percentage of internalized ox-LDL. Graphs show data as mean (±SD); n=4. *P<0.01 or <0.05 vs. control. (FIG. 3B) IC50 value for Mol-5. IC50 value (in nM) is based on inhibition of Dil-ox-LDL uptake in CHO cells overexpressing human LOX-1. Graphs show data as mean (±SD); n=5. *P<0.01 or <0.05 vs. control. (FIG. 3C) Western blotting assay showing LOX-1 protein expression in HUVECs following incubation with 200 nM Mol-1 to Mol-5 for 30 min, and subsequently exposure to 5 μg/mL ox-LDL for 6 hours. […]
For further characterization, human endothelial cells and fluorescently-labeled Dil-ox-LDL were used for measuring initiation of atherogenic process based on interaction of vascular wall with ox-LDL. Ox-LDL uptake by human umbilical vein endothelial cells (HUVECs) was measured after exposure to 200 nM of each compound using flow cytometry. […] The dose response to modulation of ox-LDL uptake by Mol-5 (0, 20, 200 and 2000 nM) was also measured in CHO cells overexpressing human LOX-1. […]

Series [3] has as its system ECs. The series is described as follows: Second dose response of ox-LDL uptake by ECs (lower concentrations). The series is classed as cell-based. The note with it: second dose response curve, estimated. As for the experimental part:
FIG. 6A depicts the IC50 for Mol-5. The x-axis represents Mol-5 concentration (nM) and the y-axis represents ox-LDL uptake by ECs. FIG. 6B depicts the ox-LDL uptake with Mol-5 inhibition.
For further characterization, human endothelial cells and fluorescently-labeled Dil-ox-LDL were used for measuring initiation of atherogenic process based on interaction of vascular wall with ox-LDL. Ox-LDL uptake by human umbilical vein endothelial cells (HUVECs) was measured after exposure to 200 nM of each compound using flow cytometry. […] The dose response to modulation of ox-LDL uptake by Mol-5 (0, 20, 200 and 2000 nM) was also measured in CHO cells overexpressing human LOX-1. […] A second dose response curve was conducted to narrow in on the effect of lower concentrations of Mol-5 on ox-LDL uptake (FIG. 6A). Using this information the EC50 was estimated to be […] (FIG. 6B).

Series [4] is described as follows: Liver microsomal stability, mouse. The series is classed as in vitro ADME. Conditions: mouse liver microsomes. As for the experimental part:
(§1) Metabolic stability or clearance is recognized as one of the main determinants of drug concentration in blood. The metabolic stability of Mol-5 was tested using liver microsomes form mice and humans to obtain stability ranking and intrinsic clearance.

The nature of series [5]: Liver microsomal stability, human. Conditions: human liver microsomes. The series is classed as in vitro ADME. As for the experimental part: as §1

With `CCCn1c(CCNC(=O)CCCO)nc2ccccc21` [Mol-4], the “effect on ox-LDL-mediated VCAM-1 mRNA upregulation” value in series [1] was “significantly reduced; also recorded: significantly inhibited”.
As to `Cc1cc(C)n(CC(O)COc2ccccc2)n1` (stereo not shown) [Mol-5, 1-(3,5-dimethyl-1H-pyrazol-1-yl)-3-phenoxypropan-2-ol], in series [2], the IC50 was ~200 nM and 200 nM. In series [3], the concentration giving a half-maximal response (EC50) is 64 nM. In addition, in series [4], the half-life turned out to be 1.7 ± 0.1 min, the “metabolic stability (in words)” value is “low stability” and the microsomal CLint was 836 ± 40.8 µL/min/mg. Moreover, in series [5], the half-life is 55.3 ± 2.2 min, the “metabolic stability (in words)” value is given as “reasonable stability” and the microsomal CLint is 25.1 ± 1 µL/min/mg. Further, in series [1], the “effect on ox-LDL-mediated VCAM-1 mRNA upregulation” value is given as “significantly reduced; also recorded: significantly inhibited”.
